Measured values published in the supplement of paper PMC10920090.

Tests used:
MDA-MB-231 [1] = assay: drug sensitivity score (DSS), cell viability CellTiter-Glo; higher = more sensitive; extreme values may be limits of the assay; details: 72 h
MDA-MB-231 [2] = assay: drug sensitivity score (DSS), cytotoxicity CellTox Green; higher = more cytotoxic; extreme values may be limits of the assay; details: 72 h
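Throughout, for drug sensitivity score (DSS), cytotoxicity CellTox Green: DSS summarises each dose–response curve by combining IC50, EC50, maximal inhibition and efficacy across drug concentrations.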

| Structure (SMILES) | drug sensitivity score (MDA-MB-231 [1]; shRNA: shPPFIA1_1) [DSS] | drug sensitivity score (MDA-MB-231 [1]; shRNA: shScramble) [DSS] | drug sensitivity score (MDA-MB-231 [2]; shRNA: shPPFIA1_1) [DSS] | drug sensitivity score (MDA-MB-231 [2]; shRNA: shScramble) [DSS] |
| --- | --- | --- | --- | --- |
| C[C@]1(O)C[C@@H](c2nc(-c3ccc4ccc(-c5ccccc5)nc4c3)c3c(N)nccn32)C1 [Linsitinib] | 0 | 0 | 0 | 0 |
| CCNc1nc(Nc2cc(F)c(C(=O)N3CCOCC3)cc2OC)ncc1C(F)(F)F [GNE-7915] | 0 | 0 | 0 | 0 |
| Oc1ccc2c(c1)CC[C@H](c1ccccc1)[C@@H]2c1ccc(OCCN2CCCC2)cc1 [Lasofoxifene] | 0 | 0.4 | 0 | 0 |
| C#Cc1cccc(Nc2ncnc3cc4c(cc23)OCCOCCOCCO4)c1 [Icotinib] | 6.2 | 3 | 0 | 0 |
| C[C@@H]1C[C@H]2O[C@@H]2/C=C\C=C\C(=O)Cc2c(Cl)c(O)cc(O)c2C(=O)O1 [Radicicol] | 2 | 6.4 | 0 | 1.9 |
| C/C=C1\NC(=O)[C@H]2CSSCC/C=C/[C@H](CC(=O)N[C@H](C(C)C)C(=O)N2)OC(=O)[C@H](C(C)C)NC1=O [Romidepsin] | 20.5 | 29 | 33.6 | 26.9 |
| Cc1cc(Nc2cc(CN3CCOCC3)c3nc(C)c(Cc4ccc(Cl)cc4F)n3n2)n[nH]1 [Gandotinib] | 1.6 | 4.4 | 2.1 | 1.7 |
| CC1(C)CNc2cc(NC(=O)c3cccnc3NCc3ccncc3)ccc21 [Motesanib] | 0 | 0 | 0 | 0.3 |
| C=CC(=O)Nc1cc2c(Nc3ccc(F)c(Cl)c3)ncnc2cc1OCCCN1CCOCC1 [Canertinib] | 2.8 | 4.3 | 3 | 7.7 |
| Cc1ccc(NC(=O)c2ccc(CN3CCN(C)CC3)cc2)cc1Nc1nccc(-c2cccnc2)n1 [Imatinib] | 1.5 | 0 | 1.4 | 0 |
| COc1cc2nccc(Oc3ccc(NC(=O)NC4CC4)c(Cl)c3)c2cc1C(N)=O [Lenvatinib] | 0 | 0 | 0 | 0 |
| Cc1nc(NC(=O)N2CCC[C@H]2C(N)=O)sc1-c1ccnc(C(C)(C)C(F)(F)F)c1 [Alpelisib] | 1.5 | 0 | 0 | 0 |
| COc1cc(Nc2ncc3c(n2)-c2ccc(Cl)cc2C(c2c(F)cccc2OC)=NC3)ccc1C(=O)O [Alisertib] | 0.8 | 0.1 | 0.7 | 0 |
| CNc1ncc2cc(-c3cc(NC(=O)NCCC(C)(C)C)c(F)cc3C)c(C)nc2n1 | 0.6 | 14.8 | 21.9 | 19.4 |
| O=C(CCCCCCNC(=O)c1cnc(N(c2ccccc2)c2ccccc2)nc1)NO [Rocilinostat] | 2.1 | 3.5 | 6.7 | 1 |
| CC(C)c1cc(C(=O)N2Cc3ccc(CN4CCN(C)CC4)cc3C2)c(O)cc1O [Onalespib] | 13.6 | 10.6 | 0 | 2.6 |
| COc1cccc2c1C(=O)c1c(O)c3c(c(O)c1C2=O)C[C@@](O)(C(=O)CO)C[C@@H]3O[C@H]1C[C@H](N)[C@H](O)[C@H](C)O1 [Doxorubicin] | 1.4 | 6.8 | 0 | 0 |
| COC(=O)c1ccc2c(c1)[nH]c1ncnc(NCCCN3CCCCC3)c12 [UM729] | 0 | 0 | 0 | 0 |
| Cc1c(F)cc(C(=O)NC2CC2)cc1-c1ccc(C(=O)NCC(C)(C)C)cn1 [Losmapimod] | 1.7 | 0 | 0 | 0 |
| NCCNc1ccc(NCCN)c2c1C(=O)c1ccncc1C2=O [Pixantrone] | 3.1 | 0.4 | 0 | 0 |
| COc1ccc(-c2ccc3c(N4CCOC[C@@H]4C)nc(N4CCOC[C@@H]4C)nc3n2)cc1CO [AZD8055] | 2.3 | 9.6 | 0 | 0 |
| O=C(O)CNC(=O)c1c(O)c2ccccc2n(Cc2ccccc2)c1=O [IOX-2] | 5 | 4 | 0 | 0 |
| COC(=O)N[C@@H](C)CNc1nccc(-c2cn(C(C)C)nc2-c2cc(Cl)cc(NS(C)(=O)=O)c2F)n1 [Encorafenib] | 0 | 1.3 | 0 | 0 |

| Structure (SMILES) | drug sensitivity score (MDA-MB-231 [1]; shRNA: shPPFIA1_1) [DSS] | drug sensitivity score (MDA-MB-231 [1]; shRNA: shScramble) [DSS] | drug sensitivity score (MDA-MB-231 [2]; shRNA: shPPFIA1_1) [DSS] | drug sensitivity score (MDA-MB-231 [2]; shRNA: shScramble) [DSS] |
| --- | --- | --- | --- | --- |
| CCc1cnn2c(NCc3ccc[n+]([O-])c3)cc(N3CCCC[C@H]3CCO)nc12 [Dinaciclib] | 13.8 | 18.7 | 15.4 | 8.8 |
| COc1cc2nccc(Oc3ccc(NC(=O)Nc4cc(C)on4)c(Cl)c3)c2cc1OC [Tivozanib] | 0 | 1.9 | 3.3 | 0 |
| Cn1c(CCCC(=O)O)nc2cc(N(CCCl)CCCl)ccc21 [Bendamustine] | 0 | 0 | 0 | 0 |
| NCC(=O)Nc1ccc(-n2nc(C(F)(F)F)cc2-c2ccc3c(ccc4ccccc43)c2)cc1 | 5 | 8.7 | 8 | 7.3 |
| CNC(=O)c1ccccc1Nc1cc(Nc2ccc(N3CCOCC3)cc2OC)ncc1C(F)(F)F [VS-4718] | 0 | 0 | 0 | 0 |
| CC(C)C[C@@H](C(=O)N[C@H](C(=O)OC1CCCC1)c1ccccc1)[C@H](O)C(=O)NO [Tosedostat] | 4.2 | 2 | 12.4 | 7.8 |
| CC[C@@]1(O)C(=O)OCc2c1cc1n(c2=O)Cc2cc3c(CN(C)C)c(O)ccc3nc2-1 [Topotecan] | 0 | 5.8 | 0.8 | 1.5 |
| Cn1c(Nc2ccc(C(F)(F)F)cc2)nc2cc(Oc3ccnc(-c4ncc(C(F)(F)F)[nH]4)c3)ccc21 [RAF265] | 0 | 1.8 | 0 | 1.6 |
| O=P1(NCCCl)OCCCN1CCCl (stereo not drawn) [Ifosfamide] | 0 | 0 | 0 | 0 |
| NC(=O)c1cccc2cn(-c3ccc([C@@H]4CCCNC4)cc3)nc12 [Niraparib] | 2.8 | 1.9 | 0 | 0 |
| Cn1nccc1Nc1nccc(-c2ccn([C@H](CO)c3ccc(Cl)c(F)c3)c(=O)c2)n1 [GDC-0994] | 0 | 3.5 | 0 | 3 |
| COCC[n+]1c2c(n(Cc3cnccn3)c1C)C(=O)c1ccccc1C2=O [YM155] | 24.1 | 33.4 | 20.5 | 34.6 |
| O=C1NC(=O)/C(=C/c2ccc3nccc(-c4ccncc4)c3c2)S1 | 0 | 4.3 | 0 | 0 |
| CCc1c2c(nc3ccc(OC(=O)N4CCC(N5CCCCC5)CC4)cc13)-c1cc3c(c(=O)n1C2)COC(=O)[C@]3(O)CC [Irinotecan] | 0 | 0.3 | 0 | 0 |
| CS(=O)(=O)c1ccc(-c2cnc(N)c(C(=O)Nc3ccccc3)n2)cc1 [VE-821] | 0 | 0 | 0 | 0 |
| C[C@]12C=CC(=O)C=C1CC[C@@H]1[C@@H]2[C@@H](O)C[C@@]2(C)[C@H]1CC[C@]2(O)C(=O)CO [Prednisolone] | 0 | 0 | 0 | 0 |
| O=C(NC[C@H](O)CN1CCc2ccccc2C1)c1cc(NC2COC2)ncn1 | 0.5 | 1.8 | 0 | 0 |
| Nc1ncn([C@H]2C[C@H](O)[C@@H](CO)O2)c(=O)n1 [Decitabine] | 0.9 | 1 | 0 | 0 |
| O=C(CCCCCCC(=O)Nc1ccccc1)NO [Vorinostat] | 2.4 | 6.6 | 6.9 | 2.5 |
| CCN(CC)CCOc1ccc(C(=C(Cl)c2ccccc2)c2ccccc2)cc1 [Clomifene] | 3.7 | 5.1 | 7.9 | 6.1 |
| NC[C@@](O)(c1ccc(Cl)cc1)c1ccc(-c2cn[nH]c2)cc1 | 3 | 6 | 7.8 | 7.6 |
| O=C(Nc1cccc(C(F)(F)F)c1)Nc1cc(S(=O)(=O)NC2CC2)ccc1-c1ccsc1 [AGI-6780] | 0 | 0 | 0.5 | 0 |
| Cc1cnc(Nc2ccc(OCCN3CCCC3)cc2)nc1Nc1cccc(S(=O)(=O)NC(C)(C)C)c1 [Fedratinib] | 1.9 | 9.2 | 2.2 | 5.7 |

| Structure (SMILES) | drug sensitivity score (MDA-MB-231 [1]; shRNA: shPPFIA1_1) [DSS] | drug sensitivity score (MDA-MB-231 [1]; shRNA: shScramble) [DSS] | drug sensitivity score (MDA-MB-231 [2]; shRNA: shPPFIA1_1) [DSS] | drug sensitivity score (MDA-MB-231 [2]; shRNA: shScramble) [DSS] |
| --- | --- | --- | --- | --- |
| CC(C)Cn1cnc2c(N)nc3ccccc3c21 [Imiquimod] | 0 | 2.7 | 0.9 | 0 |
| Cc1cccc(-c2[nH]c(CNc3ccccc3F)nc2-c2ccc3ncnn3c2)n1 [TEW-7197] | 9.1 | 0 | 0.9 | 0 |
| C=CC(=O)N1CCC(Oc2cc3c(Nc4ccc(Cl)c(Cl)c4F)ncnc3cc2OC)CC1 [Poziotinib] | 3.1 | 0 | 0 | 0 |
| Cc1c(NC(=O)OC[C@@H]2COCCN2)cn2ncnc(Nc3ccc4c(cnn4Cc4cccc(F)c4)c3)c12 | 1.2 | 2.4 | 0 | 0 |
| Nc1cc(F)ccc1NC(=O)/C=C/c1cnn(C/C=C/c2ccccc2)c1 [RGFP966] | 2.6 | 0.2 | 3.1 | 0 |
| FC(F)(F)c1ccc(CNc2ccc(Cc3c[nH]c4ncc(Cl)cc34)cn2)cn1 [Pexidartinib] | 0 | 0 | 0 | 0 |
| NC(=O)NO [Hydroxyurea] | 0 | 0 | 0 | 0 |
| CCCCCOC(=O)Nc1nc(=O)n([C@@H]2O[C@H](C)[C@@H](O)[C@H]2O)cc1F [Capecitabine] | 0 | 0 | 0 | 0 |
| CC(C)Oc1cc(Nc2nc(N[C@@H](C)c3ccc(F)cn3)ncc2Cl)n[nH]1 [AZ-23] | 0 | 0 | 0 | 1 |
| Oc1nc(-c2ccc(C(F)(F)F)cc2)nc2c1CSCC2 [XAV-939] | 1.6 | 0.5 | 1.2 | 0 |
| Cc1c(Cn2c(C)nc3c(C(=O)O)cc(N4CCOCC4)cc32)cccc1C(F)(F)F | 3.6 | 2.8 | 0 | 0 |
| O=C1CCC(N2C(=O)c3ccccc3C2=O)C(=O)N1 (stereo not drawn) [Thalidomide] | 0 | 0 | 0 | 0 |
| Nc1ncnc2c1c(COc1cccc(Cl)c1)nn2C1CCOCC1 | 0 | 1.2 | 0 | 0 |
| Cn1nnc2c(C(N)=O)ncn2c1=O [Temozolomide] | 1.8 | 2.6 | 0 | 0 |
| COc1cc2c(N3CCN(C(=O)Nc4ccc(OC(C)C)cc4)CC3)ncnc2cc1OCCCN1CCCCC1 [Tandutinib] | 9.9 | 6.5 | 0 | 0 |
| CN1CCC(CNc2ccc3ncc(-c4cccc(OC(F)(F)F)c4)n3n2)CC1 [SGI-1776] | 9 | 9 | 4.9 | 4.7 |
| CO[C@@H]1[C@H](N(C)C(=O)c2ccccc2)C[C@H]2O[C@]1(C)n1c3ccccc3c3c4c(c5c6ccccc6n2c5c31)C(=O)NC4 [Midostaurin] | 0 | 3.5 | 0 | 0.1 |
| O=C(O)CC1CC(c2ccccc2)=NO1 (stereo not drawn) [VGX-1027] | 0 | 0 | 0 | 0 |
| COc1cccc2c1C(=O)c1c(O)c3c(c(O)c1C2=O)C[C@@](O)(C(C)=O)C[C@@H]3O[C@H]1C[C@H](N)[C@H](O)[C@H](C)O1 [Daunorubicin] | 2.8 | 7.5 | 0 | 0 |
| CC[C@H](C)C(=O)O[C@H]1C[C@@H](C)C=C2C=C[C@H](C)[C@H](CC[C@@H]3C[C@@H](O)CC(=O)O3)[C@H]21 [Lovastatin] | 0 | 0 | 0 | 0 |
| CN(N=O)C(=O)N[C@@H](C=O)[C@@H](O)[C@H](O)[C@H](O)CO [Streptozocin] | 0.1 | 0.3 | 0 | 0 |
